# From paper PMC4224572, “Peptidomimetic inhibitors of N-myristoyltransferase from human malaria and leishmaniasis parasites” (Organic & Biomolecular Chemistry, 2014)
# Ends that are not written are not given here.
# Tests used:
# [1] = parameters: method as in earlier work; conditions: cited from earlier work
# CaNMT = test system: CaNMT; parameters: method as in PMID 7783114; conditions: read-out: KM as CaNMT substrate; cited from earlier work
# PvNMT [2] = target: T1, PvNMT (Plasmodium vivax, UniProt A5K1A2); test: Fluorogenic NMT inhibition assay, PvNMT; type: biochemical; conditions: recombinant enzyme; mean of duplicate or triplicate experiments
# T1 sequence (A5K1A2 1-410): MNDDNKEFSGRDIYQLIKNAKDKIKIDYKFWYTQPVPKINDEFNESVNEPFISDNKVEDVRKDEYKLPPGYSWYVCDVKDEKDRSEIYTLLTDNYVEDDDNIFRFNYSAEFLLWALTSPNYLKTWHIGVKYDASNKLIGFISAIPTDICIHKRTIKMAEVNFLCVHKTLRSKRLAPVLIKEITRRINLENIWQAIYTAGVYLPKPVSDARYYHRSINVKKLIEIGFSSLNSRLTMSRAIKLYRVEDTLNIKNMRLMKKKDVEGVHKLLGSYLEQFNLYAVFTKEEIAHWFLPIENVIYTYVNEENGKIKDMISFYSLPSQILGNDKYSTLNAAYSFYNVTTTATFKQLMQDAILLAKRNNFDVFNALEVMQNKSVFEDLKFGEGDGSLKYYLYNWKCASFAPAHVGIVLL
# Excerpt: (§1) 2-Methylimidazolyl analogues were synthesized building on the hypothesis that 2-methylimidazole (pK a ∼ 7.9)[18] is a reasonable mimetic for N-terminal Gly in the peptide substrate (pK a ∼ 8.0).[19] To cover a range of basicity, imidazolyl (pK a ∼ 7.0) and amine analogues (pK a ∼ 10.0) were also synthesized, each exploring a range of chain lengths (n) (Table 1). To probe versatility at the C-terminus, primary amides, carboxylic acids, 2-cyclohexylethyl and 2-(1-cyclohexenyl)ethyl amides were incorporated. Using a previously reported fluorogenic assay,[20] inhibitors were tested against the parasitic enzymes and HsNMT1 in order to explore their selectivity against a relevant host enzyme. […] Further reduction of the chain length (11 and 12, n = 8 and 7, respectively) led to loss of detectable activity against Plasmodium NMTs and significant loss of activity against LdNMT and HsNMT1.
# Leishmania NMT = test: Substrate characteristics in Leishmania NMT; type: biochemical
# Description: (§2) Unexpectedly, the electron maps indicated a mixture of ligand structures such that ∼20% of the electron density represents a N-myristoylated 10 product complex with the CoA by-product in LmNMT (Fig. 2D). This is the only structural evidence for a product complex in any N-myristoyltransferase, and captures and supports the proposed mechanism of action of NMT just prior to regeneration of the active enzyme. Kinetic experiments were performed to study 10 both as a potential substrate and as an NMT inhibitor. […] The N-myristoylation of 10 observed above therefore presumably occurs within the crystal where all reagents are present at high effective concentrations, and turnover is blocked by limited egress of products.
# To probe the degree to which 10 acts as a true peptidomimetic, we investigated the potential to switch from inhibitor to a peptidomimetic substrate. […] In native NMT substrates, N-terminal Gly is preferred to the exclusion of all other residues, with relatively non-sterically demanding residues such as alanine. […]
# (§3) [Substrate] (µM) [S b[Substrate] (µM) tt ]
# Hs pp60src(2-9) Compound 10 Compound 27 Compound 28
# Figure S4: Substrate characteristics of H. sapiens p60src(2-16), compound 10 and modified
# inhibitors 27 and 28 in Leishmania NMT.
# PfNMT = target: T2, PfNMT (Plasmodium falciparum, UniProt Q9U419); test: Fluorogenic NMT inhibition assay, PfNMT; type: biochemical; conditions: recombinant enzyme; mean of duplicate or triplicate experiments
# T2 sequence (Q9U419 1-410): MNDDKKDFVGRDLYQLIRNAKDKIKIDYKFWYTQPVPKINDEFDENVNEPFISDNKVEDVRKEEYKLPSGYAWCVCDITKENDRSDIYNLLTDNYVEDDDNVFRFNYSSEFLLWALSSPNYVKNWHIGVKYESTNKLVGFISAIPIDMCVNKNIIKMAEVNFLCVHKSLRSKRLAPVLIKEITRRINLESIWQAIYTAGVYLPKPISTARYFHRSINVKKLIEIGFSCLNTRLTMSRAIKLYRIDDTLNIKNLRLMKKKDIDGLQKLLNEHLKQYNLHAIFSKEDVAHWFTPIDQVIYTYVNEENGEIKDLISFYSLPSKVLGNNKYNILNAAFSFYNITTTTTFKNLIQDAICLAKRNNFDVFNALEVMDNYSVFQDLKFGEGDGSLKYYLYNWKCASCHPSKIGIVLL
# Excerpt: as §1
# PvNMT [3] = target: T1, PvNMT; test: Kinetic assay and Lineweaver-Burk plot, competitiveness of compound 10; type: biochemical
# Description: as §2, with “products. […]” for “products.”
# 3. Kinetic studies of Compound 10. […]
# 1 / [Sub s tr ate] Rate / [Su b s tr ate]
# No inhibitor 0.6 μM 1.2 μM 2.4 μM
# Figure S3: Kinetic assay and Lineweaver-Burk plot studying the competitiveness of
# as §3
# LdNMT = test: Fluorogenic NMT inhibition assay, LdNMT; type: biochemical, L. donovani
# Excerpt: as §1
# HsNMT1 = target: T3, HsNMT1 (Homo sapiens, UniProt P30419); test: Fluorogenic NMT inhibition assay, HsNMT1; type: biochemical, H. sapiens; conditions: mean of duplicate or triplicate experiments
# T3 sequence (P30419 1-496): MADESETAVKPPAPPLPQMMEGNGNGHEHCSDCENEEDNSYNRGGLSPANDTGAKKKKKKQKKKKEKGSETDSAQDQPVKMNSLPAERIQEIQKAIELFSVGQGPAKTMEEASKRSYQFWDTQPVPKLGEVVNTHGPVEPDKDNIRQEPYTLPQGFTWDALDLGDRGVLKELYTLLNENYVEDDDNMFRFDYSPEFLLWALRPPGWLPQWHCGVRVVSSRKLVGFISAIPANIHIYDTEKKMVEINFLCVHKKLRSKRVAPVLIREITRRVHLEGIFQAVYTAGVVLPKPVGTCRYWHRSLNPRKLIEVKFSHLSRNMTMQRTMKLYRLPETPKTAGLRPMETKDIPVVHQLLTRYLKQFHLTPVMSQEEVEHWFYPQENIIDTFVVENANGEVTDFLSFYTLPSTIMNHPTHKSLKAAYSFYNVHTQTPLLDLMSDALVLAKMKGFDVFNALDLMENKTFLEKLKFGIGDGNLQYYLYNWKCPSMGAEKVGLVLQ
# Excerpt: 2-Methylimidazolyl analogues were synthesized building on the hypothesis that 2-methylimidazole (pK a ∼ 7.9)[18] is a reasonable mimetic for N-terminal Gly in the peptide substrate (pK a ∼ 8.0).[19] To cover a range of basicity, imidazolyl (pK a ∼ 7.0) and amine analogues (pK a ∼ 10.0) were also synthesized, each exploring a range of chain lengths (n) (Table 1). To probe versatility at the C-terminus, primary amides, carboxylic acids, 2-cyclohexylethyl and 2-(1-cyclohexenyl)ethyl amides were incorporated. Using a previously reported fluorogenic assay,[20] inhibitors were tested against the parasitic enzymes and HsNMT1 in order to explore their selectivity against a relevant host enzyme.
molecule,measurement,setting,value
Cc1ncc[nH]1 [2-methylimidazole],pKa,[1],~7.9
GLYASKLS-NH2 [CaNMT octapeptide substrate],Km,CaNMT,0.6 µM
NCCCCCCCCCC(=O)N[C@@H](CO)C(=O)N[C@@H](CCCCN)C(=O)NCCC1CCCCC1 [Compound 10],IC50,PvNMT [2],680 ± 80 nM
same,KM as substrate,Leishmania NMT; Leishmania NMT,Not measurable
same,Vmax as substrate,Leishmania NMT; Leishmania NMT,Not measurable
same,substrate activity,Leishmania NMT; compound 10 tested up to 40 μM,no substrate characteristics were detected
same,IC50,PfNMT,24300 ± 3400 nM
same,Vmax of substrate in presence of inhibitor,PvNMT [3]; 0.6 μM compound 10,20701.0 ± 1047.4
same,Vmax of substrate in presence of inhibitor,PvNMT [3]; 1.2 μM compound 10,19563.0 ± 1520.6
same,Vmax of substrate in presence of inhibitor,PvNMT [3]; 2.4 μM compound 10,21120.3 ± 1651.4
same,mode of inhibition,"PvNMT [3]; kinetic studies, Fig. S3",peptide-competitive inhibitor
same,IC50,"LdNMT; recombinant enzyme, mean of duplicate or triplicate experiments",24 ± 3 nM
same,"potency against LdNMT, fold higher than 2 (1H-imidazol-1-yl)",LdNMT; relative to compound 2,over 400 fold
same,"potency against LdNMT, fold higher than 6 (2-methyl-1H-imidazol-1-yl)",LdNMT; relative to compound 6,> 20 fold
same,IC50,HsNMT1,60 ± 3 nM
